Experiments:
[1] = system: COVID-19 virus Beta variant; type: cell-based
[2] = system: COVID-19 virus Delta variant; type: cell-based

Compound | COVID-19 Beta virus SI [1] | COVID-19 Delta virus SI [2]
COc1ccc([C@H]2OC[C@H]3[C@@H]2CO[C@H]3c2ccc(O[C@@H]3O[C@H](CO)[C@@H](O)[C@H](O)[C@H]3O)c(OC)c2)cc1OC [compound 2] | 7.10 | 6.86
COc1ccc(C2OCC3C(c4ccc(OC)c(OC)c4)OCC23)cc1O (centres unmarked) [compound 3] | 2.12 | 2.11
COc1cc(O)cc(C2OCC3C(c4ccc(OC5OC(CO)C(O)C(O)C5O)c(OC)c4)OCC23)c1 (centres unmarked) [compound 1] | 7.64 | 7.14
COc1ccc(C2OCC3C(c4ccc(OC(=O)C(C)c5ccc(CC(C)C)cc5)c(OC)c4)OCC23)cc1OC (centres unmarked) [compound 6] | 3.43 | 1.79

Source: US20250049831A1, “ANTIVIRAL USE OF BISE[…], AND BISEPOXYLIGNAN COMPOSITION AND PREPARATION OF BISE[…]” (priority 2021, published 2025)
